Results reported in patent publication US6914046B1, “NF-κB activation inhibitors, and their pharmaceutical uses” (Centre National de la Recherche Scientifique, priority 1999, dated 2005).
“Also recorded” adds a separate entry of the source.

B1: HGH: human growth hormone (SEQ ID NO 2); produced by transfected U937-HGH line or recombinant exogenous HGH (Saizen, Serono) (protein, listed as Homo sapiens)
chain: MATGSRTSLLLAFGLLCLPWLQEGSAFPTIPLSRLFDNASLRAHRLHQLAFDTYQEFNPQTSLCFSESIPTPSNREETQQKSNLELLRISLLLIQSWLEPVQFLRSVFANSLVYGASDSNVYDLLKDLEEGIQTLMGRLEDGSPRTGQIFKQTYSKFDTNSHNDDALLKNYGLLYCFRKDMDKVETFLRIVQCRSVEGSCGF

Tests used:
[1] = test system: human ovarian adenocartcinoma IGROV/ADR; assay: Death of adriamycine resistant IGROV/ADR cells by daunomycin with recombinant HGH; format: cell-based
From the text: To test the possibility of using the object of the present invention on non-lymphoid tumors, the inventors have used HGH to try to invert the “adriamycine resistant” phenotype of cells isolated from a human ovarian adenocartcinoma IGROV/ADR (Bénard J et coll., 1985, Cancer Res, 45:4970-4979).
FIG. 5: Effect of growth hormone on the apoptosis of the IGROV/ADR line, induced by daunomycin; the percentage of dead cells (IP+) is indicated on the ordinate, and different columns corresponding to the different concentrations of HGH used (0, 5, 50, 500, 1000 ng/ml); the concentrations of daunomycin are indicated on the abscissa in μM.

[2] = test system: human renal carcinoma cells (RCC) HIEG; assay: Number of living RCC cells 48 h after daunomycin, flow cytometry; format: cell-based
Procedure: Erythropoietin (EPO), another molecule than HGH belonging to the same family of cytokines of class I, has been tested on human renal carcinoma cells (RCC) HIEG.
4.10^4 RCC cells have been transfected in a transitory manner with the help of an Effecten^R kit, or with 3 μg of plasmid carrying the gene encoding for EPO (RCC-EPO cells), or with 3 μg of a plasmid coding for the resistance to neomycin (RCC-Neo cells) as the negative control. After 48 hours, the RCC were combined with daunomycin at two different concentrations: 0.3 and 0.6 μM. The number of surviving cells was measured 48 hours later by flow cytometry (FIG. 6).
FIG. 6: Effect of erythropoietin on the apoptosis of the human renal carcinoma line HIEG, induced by daunomycin: for each of the experiments 1 and 2, the number of living cells is indicated on the ordinate, the white columns correspond to the RCC-Neo cells, the black columns correspond to the RCC-EPO cells; the concentrations of daunomycin are indicated on the abscissa in μM.

[3] = test system: U937-HGH and U937-Neo cells; assay: Propidium iodide incorporation (flow cytometry) after 48 h culture with recombinant -TNF; format: cell-based, human; conditions: U937-HGH line versus U937 / U937-Neo control
From the text: A selection gene (neomycin resistant, Neo^R) and the gene encoding for human growth hormone (HGH) have been co-transfected in the human promyeloid leukemic line U937. By comparing the transfected line U937-HGH (which produces in a constituent fashion HGH at physiologic doses), either to the parent line U937, or to a line transfected with Neo^R alone, there are observed by different methodological approaches, that the U937-HGH line dies more under the effect of the tumor necrosis factor (-TNF). This cytokine secreted by different types of immune cells has in an anti-tumor activity (Harakana, K et al., 1984, Int J Cancer, 34:263-267) and is capable of promoting the activation of NF-κB (Baeuerle P A, Henkel T, 1994, Ann Rev Immunol, 12:141-179).
The U937-HGH cells and the U937-Neo control cells have been cultured for 48 hours in the presence of increasing concentrations of recombinant -TNF. As a result of this culture, the washed cells have been incubated in the presence of propidium iodide which is incorporated in the DNA of the dead cells. These cells are analyzed by flowing cytometry. […]

NF-κB [4] = assay: Gel delay analysis of nuclear extracts for NF-κB after -TNF stimulation; format: cell-based, human; conditions: U937-HGH cells versus U937 control cells, -TNF or -TNF and cycloheximide
From the text: On this gel were deposited nuclear extracts from the U937-HGH and U937 cells (the mother line having served for obtaining the U937-HGH lines) subjected to different inductors including -TNF or -TNF and cycloheximide (inhibitor of protein synthesis).
FIG. 2: The effect of growth hormone on the translocation of NF-κB; column 1 corresponds to the control cells U937, column 2 corresponds to the U937 cells treated with -TNF+cycloheximide, column 3 corresponds to the U937 cells treated with -TNF, column 4 corresponds to the U937 cells treated with -TNF+a mutant NF-κB probe, column 5 corresponds to the U937 cells treated with -TNF +a homologous NF-κB probe, column 6 corresponds to the control cells U937-HGH, column 7 corresponds to the U937-HGH cells treated with -TNF+cycloheximide, column 8 corresponds to the U937-HGH cells treated with -TNF; the presence of NF-κB is indicated by an arrow.

NF-κB [5] = assay: NF-κB-driven CAT reporter ELISA after -TNF stimulation; format: cell-based, human; conditions: U937-HGH versus U937-Neo cells
Procedure: The cells are transfected by electroporation then incubated with -TNF. At the end of culturing, the cells are lysated and the activated CAT is measured by an commercial ELISA (Boehringer-Mannheim), according to the directions of the supplier.
FIG. 3: Effect of growth hormone on the reporter activity CAT; the percentage of variation of CAT activity is indicated on the abscissa; the two left columns show the two experiments carried out on U937-Neo cells, and the two right columns represent the two independent experiments carried out on U937-HGH cells.

[6] = test system: U937-HGH and U937-Neo cells; assay: Death mediated by daunomycin in U937-HGH versus control line (IP+ cells); format: cell-based, human
From the text: FIG. 4: Effect of growth hormone on apoptosis induced by daunomycin; the percentage of the dead cells (IP+) is indicated on the ordinate, the white columns corresponding to the cells of the strain U937-Neo, the black columns corresponding to the cells of the strain U937-HGH; the indicated percentages show the increase of mortality of the cells; the concentrations of daunomycin are indicated on the abscissa in μM.

human monocytes = assay: Death of human monocytes after engagement of APO1/CD95/Fas; format: cell-based
NF-κB [7] = conditions: human monocytes, exogenous recombinant HGH; cited from earlier work

Row | Molecule | toxic effect of daunomycin on IGROV/ADR cells ([1]; HGH 0 ng/ml) | numbers of living cells ([2]; Experiment 1, RCC-EPO cells, daunomycin 0.3 μM) | numbers of living cells ([2]; Experiment 1, RCC-EPO cells, daunomycin 0.6 μM) | numbers of living cells ([2]; Experiment 1, RCC-Neo cells, daunomycin 0.3 μM) | numbers of living cells ([2]; Experiment 1, RCC-Neo cells, daunomycin 0.6 μM) | numbers of living cells ([2]; Experiment 2, RCC-EPO cells, daunomycin 0.3 μM) | numbers of living cells ([2]; Experiment 2, RCC-EPO cells, daunomycin 0.6 μM) | numbers of living cells ([2]; Experiment 2, RCC-Neo cells, daunomycin 0.3 μM) | numbers of living cells ([2]; Experiment 2, RCC-Neo cells, daunomycin 0.6 μM) | effect of HGH on death mediated by -TNF [3] | presence of NF-κB in the nuclei (NF-κB [4]) | CAT activity, reflected by the presence of NF-κB (NF-κB [5]) | sensitivity to death mediated by daunomycin [6] | dose of HGH giving maximum effect ([1]; lowest dose of HGH used, sensitisation to daunomycin) [ng/mL] | effect of recombinant HGH on sensitivity of IGROV/ADR cells to daunomycin ([1]; recombinant HGH (Saizen) added to culture) | death mediated through the molecule Fas (human monocytes) | synthesis of proto-oncogene Bc1-2 (human monocytes) | activation of NF-κB after stimulation by LPS (NF-κB [7])
1 | COc1cccc2c1C(=O)c1c(O)c3c(c(O)c1C2=O)C[C@@](O)(C(C)=O)C[C@@H]3O[C@H]1C[C@H](N)[C@H](O)[C@H](C)O1 [daunomycin] | insensitive to the toxic effect | 3487 | 8551 | 11382 | 10179 | 2693 | 4739 | 8891 | 7001 |  |  |  |  |  |  |  |  | 
2 | B1 |  |  |  |  |  |  |  |  |  | accelerates the death of these cells; also recorded: increases their susceptibility to the induction of death | decreased relative to the control cells | decreased in the U937-HGH cells relative to the control cells | more sensitive than the control line | 5 | renders these cells sensitive to daunomycin | decreases the death | increasing the synthesis | inhibits the activation of NF-κB
